Assay results taken from publication PMC9008208 (Frontiers in Cellular Neuroscience, 2022).
pEC50: −log10 of the molar value.

What was measured:
[1] = molecular target: T1, α9 nAChR (Homo sapiens, UniProt Q9UGM1); assay: two-electrode voltage clamp, Xenopus oocytes, concentration-response (partial agonist); assay type: cell-based
T1 construct: gene CHRNA9

[2] = molecular target: T2, α9α10 nAChR (Homo sapiens, UniProt Q9GZZ6+Q9UGM1); assay: as above; assay type: cell-based
T2 construct: gene CHRNA9; with nAChR subunit α10 (CHRNA10)
T2 sequence (Q9UGM1 23-479): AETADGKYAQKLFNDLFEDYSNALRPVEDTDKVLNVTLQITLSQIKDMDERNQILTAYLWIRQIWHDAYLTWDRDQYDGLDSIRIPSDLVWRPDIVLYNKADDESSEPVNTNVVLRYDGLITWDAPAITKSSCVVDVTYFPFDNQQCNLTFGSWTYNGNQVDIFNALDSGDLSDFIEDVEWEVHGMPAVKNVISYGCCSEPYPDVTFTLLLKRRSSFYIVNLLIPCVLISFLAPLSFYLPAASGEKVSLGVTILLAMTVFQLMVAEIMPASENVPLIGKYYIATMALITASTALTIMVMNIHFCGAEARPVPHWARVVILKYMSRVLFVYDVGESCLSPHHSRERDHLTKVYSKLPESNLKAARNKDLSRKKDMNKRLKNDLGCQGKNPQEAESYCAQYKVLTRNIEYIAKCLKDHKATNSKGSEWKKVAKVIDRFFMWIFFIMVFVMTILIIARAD
T2 sequence (Q9GZZ6 25-450): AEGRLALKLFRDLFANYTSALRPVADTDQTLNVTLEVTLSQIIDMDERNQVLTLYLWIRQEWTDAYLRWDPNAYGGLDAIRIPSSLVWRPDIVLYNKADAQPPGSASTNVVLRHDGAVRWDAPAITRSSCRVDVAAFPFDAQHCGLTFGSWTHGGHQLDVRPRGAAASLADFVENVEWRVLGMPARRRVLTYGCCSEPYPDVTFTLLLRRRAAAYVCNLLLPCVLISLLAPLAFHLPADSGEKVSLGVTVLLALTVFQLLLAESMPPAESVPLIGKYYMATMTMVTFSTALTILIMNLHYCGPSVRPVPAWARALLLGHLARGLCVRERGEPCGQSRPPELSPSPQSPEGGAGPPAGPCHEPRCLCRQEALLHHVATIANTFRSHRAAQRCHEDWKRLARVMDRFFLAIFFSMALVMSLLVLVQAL

T1 sequence (Q9UGM1 23-479): as the sequence (Q9UGM1 23-479) above

- pEC50 [1]: 5.15
- pEC50 [2]: 5.19
Compound: CC[N+]1(CC)CCN(c2ccc(C(F)(F)F)cc2)CC1 [pCF3-diEPP]
